Results on 24 molecules are retold here after patent US9096524B2, “Anthelmintic agents and their use” (Intervet International B.V., priority 2009, dated 2015).

For the test, the system named is A. galli (intestinal roundworm of chicken) larval stage 3; O. dentatum (nodular worm of swine) larval stages 3 and 4. As to the kind of experiment: Activity against Ascaridia galli and Oesophagostomum dentatum larvae in vitro (minimum effective concentration). In kind it is cell-based.
The mark [1] stands for this setting: read-out: MEC (minimum effective concentration) against one or more of the tested nematodes, in vitro, one or more of A. galli L3, O. dentatum L3, L4, threshold 1 μM.
[2] abbreviates: read-out: MEC (minimum effective concentration) against one or more of the tested nematodes, in vitro, one or more of A. galli L3, O. dentatum L3, L4, threshold 7 μM.
Where [3] appears, read: read-out: MEC (minimum effective concentration) against two or more of the tested nematodes, in vitro, two or more of A. galli L3, O. dentatum L3, L4, threshold 1 μM.
Where [4] appears, read: in vitro, one or more of A. galli L3, O. dentatum L3, L4, threshold 1 μM, read-out: MEC (minimum effective concentration) against one or more of the tested nematodes.
[5] abbreviates: in vitro, one or more of A. galli L3, O. dentatum L3, L4, threshold 7 μM, read-out: MEC (minimum effective concentration) against one or more of the tested nematodes.
Where [6] appears, read: in vitro, two or more of A. galli L3, O. dentatum L3, L4, threshold 1 μM, read-out: MEC (minimum effective concentration) against two or more of the tested nematodes.

Each structure is given as a SMILES string. Read-outs that look alike come from different tables or passages of the source.

Consider `CC(CN1CCN(c2ccc(C(C)(C)C)cc2)CC1)C(=O)N1CCC(Nc2ccc([N+](=O)[O-])c(C(F)(F)F)c2)CC1` (centres unmarked) [Example 130, 3-[4-(4-tert-butyl-phenyl)-piperazin-1-yl]-2-methyl-1-[4-(4-nitro-3-trifluoromethyl-phenylamino)-piperidin-1-yl]-propan-1-one], for which the minimal effective concentration reads like this: under setting [1], < 1 µM; under setting [2], < 7 µM; under setting [3], < 1 µM. On to `CC(C)(C)c1ccc(N2CCC(CCCC(=O)N3CCC(Nc4ccc([N+](=O)[O-])c(C(F)(F)F)c4)CC3)CC2)cc1` [Example 137, 4-[1-(4-tert-butyl-phenyl)-piperidin-4-yl]-1-[4-(4-nitro-3-trifluoromethyl-phenylamino)-piperidin-1-yl]-butan-1-one], for which the minimal effective concentration under setting [1] was < 1 µM, the minimal effective concentration under setting [2] was < 7 µM and the minimal effective concentration under setting [3] was < 1 µM. Consider `O=C(CCC1CCN(c2ccc(C(F)(F)F)cc2)CC1)N1CCC(Nc2ccc([N+](=O)[O-])c(C(F)(F)F)c2)CC1` [Example 141, 1-[4-(4-nitro-3-trifluoromethyl-phenylamino)-piperidin-1-yl]-3-[1-(4-trifluoromethyl-phenyl)-piperidin-4-yl]-propan-1-one], for which the minimal effective concentration is < 1 µM under setting [1], < 7 µM under setting [2] and < 1 µM under setting [3]. Turning to `O=C(CCC1CCN(c2ccc(Cl)cc2)CC1)N1CCC(Nc2ccc([N+](=O)[O-])c(C(F)(F)F)c2)CC1` [Example 144, 3-[1-(4-chloro-phenyl)-piperidin-4-yl]-1-[4-(4-nitro-3-trifluoromethyl-phenylamino)-piperidin-1-yl]-propan-1-one], the minimal effective concentration is < 1 µM under setting [1], < 7 µM under setting [2] and < 1 µM under setting [3]. Consider `CC(C)(C)c1ccc(N2CCC(CCC(=O)N3CCC(Nc4ccc([N+](=O)[O-])c(C(F)(F)F)c4)CC3)CC2)cc1` [Example 147, 3-[1-(4-tert-butyl-phenyl)-piperidin-4-yl]-1-[4-(4-nitro-3-trifluoromethyl-phenylamino)-piperidin-1-yl]-propan-1-one], for which the minimal effective concentration was < 1 µM under setting [1], < 7 µM under setting [2] and < 1 µM under setting [3]. Turning to `O=C(CCCN1CCN(c2ccc(C(F)(F)F)nc2)CC1)N1CCC(Nc2ccc([N+](=O)[O-])c(C(F)(F)F)c2)CC1` [Example 149, 1-[4-(4-nitro-3-trifluoromethyl-phenylamino)-piperidin-1-yl]-4-[4-(6-trifluoromethyl-pyridin-3-yl)-piperazin-1-yl]-butan-1-one], the minimal effective concentration is < 1 µM under setting [1], < 7 µM under setting [2] and < 1 µM under setting [3]. Consider `O=C(CCCN1CCN(c2nnc(C(F)(F)F)s2)CC1)N1CCC(Nc2ccc([N+](=O)[O-])c(C(F)(F)F)c2)CC1` [Example 153, 1-[4-(4-nitro-3-trifluoromethyl-phenylamino)-piperidin-1-yl]-4-[4-(5-trifluoromethyl-1,3,4-thiadiazol-2-yl)-piperazin-1-yl]-butan-1-one], for which the minimal effective concentration is < 1 µM under setting [1], < 7 µM under setting [2] and < 1 µM under setting [3]. For the molecule `N#Cc1ccc(NC2CCN(C(=O)CCCC3CCN(c4ccc(C(F)(F)F)cc4)CC3)CC2)cc1C(F)(F)F` [Example 156, 2-trifluoromethyl-4-(1-{4-[1-(4-trifluoromethyl-phenyl)-piperidin-4-yl]-butyryl}-piperidin-4-ylamino)-benzonitrile], the minimal effective concentration is < 1 µM under setting [4], < 7 µM under setting [5] and < 1 µM under setting [6].

On to `CC(C)(C)c1ccc(N2CCCN(CCCC(=O)N3CCC(Nc4ccc([N+](=O)[O-])c(C(F)(F)F)c4)CC3)CC2)cc1` [Example 163, 4-[4-(4-tert-butyl-phenyl)-[1,4]diazepan-1-yl]-1-[4-(4-nitro-3-trifluoromethyl-phenylamino)-piperidin-1-yl]-butan-1-one], for which the minimal effective concentration runs as follows: under setting [1], < 1 µM; under setting [2], < 7 µM; under setting [3], < 1 µM.

For the molecule `CC(C)(C)c1ccc(N2CCN(CCCC(=O)N3CC[C@@H](Nc4ccc([N+](=O)[O-])c(C(F)(F)F)c4)C3)CC2)cc1` [Example 168, 4-[4-(4-tert-butyl-phenyl)-piperazin-1-yl]-1-[(R)-3-(4-nitro-3-trifluoromethyl-phenylamino)-pyrrolidin-1-yl]-butan-1-one], the minimal effective concentration under setting [1] was < 1 µM, the minimal effective concentration under setting [2] was < 7 µM and the minimal effective concentration under setting [3] is < 1 µM. As to `O=C(CCN1CCN(c2ccccc2)CC1)N1CCC(Nc2ccc([N+](=O)[O-])c(C(F)(F)F)c2)CC1` [Example 169], under setting [5], the minimal effective concentration is < 7 µM. `O=C(CCN1CCN(c2ccccc2)CC1)N1CCC(Nc2ccc([N+](=O)[O-])c(C(F)(F)F)c2)CC1` [Example 171]: the minimal effective concentration was < 1 µM under setting [4] and < 1 µM under setting [6].

For the molecule `O=C(COC1CCN(c2ccc([N+](=O)[O-])c(C(F)(F)F)c2)CC1)N1CCN(c2ccc(Cl)cc2)CC1` [Example 179], the minimal effective concentration under setting [4] was < 1 µM.

As to `N#Cc1ccc(N2CCN(C(=O)COC3CCN(c4ccc([N+](=O)[O-])c(C(F)(F)F)c4)CC3)CC2)cc1` [Example 180], under setting [4], the minimal effective concentration was < 1 µM. With `O=C(CCN1CCN(c2cccc(C(F)(F)F)c2)CC1)N1CCC(Nc2ccc([N+](=O)[O-])c(C(F)(F)F)c2)CC1` [Example 183], under setting [6], the minimal effective concentration was < 1 µM. For the molecule `O=C(CCN1CCN(c2cccc(OC(F)(F)F)c2)CC1)N1CCC(Nc2ccc([N+](=O)[O-])c(C(F)(F)F)c2)CC1` [Example 191], the minimal effective concentration under setting [6] was < 1 µM. For `O=C(CCN1CCC(Nc2ccc([N+](=O)[O-])c(C(F)(F)F)c2)CC1)N1CCN(c2ccc(Cl)cc2)CC1` [Example 199], the minimal effective concentration under setting [4] is < 1 µM. As for `N#Cc1ccc(N2CCN(C(=O)CCN3CCC(Nc4ccc([N+](=O)[O-])c(C(F)(F)F)c4)CC3)CC2)cc1` [Example 200], under setting [4], the minimal effective concentration was < 1 µM.

For `O=C(CC(=O)N1CCN(c2ccc(Cl)c(C(F)(F)F)c2)CC1)N1CCC(Nc2ccc([N+](=O)[O-])c(C(F)(F)F)c2)CC1` [Example 202], the minimal effective concentration under setting [6] was < 1 µM. For `CC(C)(C)c1ccc(N2CCN(C(=O)CC(=O)N3CCC(Nc4ccc([N+](=O)[O-])c(C(F)(F)F)c4)CC3)CC2)cc1` [Example 203], the minimal effective concentration under setting [6] was < 1 µM.

As for `O=C(CC(=O)N1CCN(c2cccc(OC(F)(F)F)c2)CC1)N1CCC(Nc2ccc([N+](=O)[O-])c(C(F)(F)F)c2)CC1` [Example 210], the minimal effective concentration under setting [4] is < 1 µM. On to `O=C(CCN1CCC(c2cccc(C(F)(F)F)c2)CC1)N1CCC(Nc2ccc([N+](=O)[O-])c(C(F)(F)F)c2)CC1` [Example 212], for which the minimal effective concentration under setting [4] was < 1 µM. Regarding `O=C(CCC1CCN(c2cccc(C(F)(F)F)c2)CC1)N1CCC(Nc2ccc([N+](=O)[O-])c(C(F)(F)F)c2)CC1` [Example 215], the minimal effective concentration by setting is: under setting [4], < 1 µM; under setting [6], < 1 µM. For `O=C(CCC1CCN(c2ccccc2)CC1)N1CCC(Nc2ccc([N+](=O)[O-])c(C(F)(F)F)c2)CC1` [Example 216], the minimal effective concentration was < 1 µM under setting [4] and < 1 µM under setting [6].
